Source: EP0293826A2, “Therapeutic and prophylactic application of sulfated polysaccharides against AIDS” (priority 1987, dated 1988)

What was measured:
[1] = tested on: human immuno deficiency virus (HIV); conditions: cited from earlier work
HIV-1 = test: Inhibition of HIV-1 replication in MT-4 cells (trypan blue exclusion, day 5); format: cell-based
Procedure: MT-4 cells were suspended at 5 x 10^s cells per ml and infected with HIV-1 at 1000 CCIDso per ml (1 CCIDso being the 50% cell culture infective dose). After 2 h-incubation at 37° C, 5 x 10^4 cells per 100 µl were brought into each well of a flat-bottomed 96-well plastic microtiter tray containing 100 µl of various dilutions of the test compounds. After 5 days incubation at 37° C, the number of viable cells was determined microscopically in an hemacytometer by trypan blue exclusion. Anti-HIV-1 activity of the compounds was also determined by monitoring viral antigen expression in HUT-78 cells at day 14 after infection, measured by indirect immunifluorescence, using a polyclonal antibody as probe.

Molecule	concentration completely protecting ATH8 cells against the cytopathogenicity of HIV [1]	concentration at which no anti-HIV-1 activity was shown (HIV-1)
Cc1cn([C@H]2C[C@H](N=[N+]=[N-])[C@@H](CO)O2)c(=O)[nH]c1=O [AZT, 3 -azido-2',3 -dideoxythymidine]	1-5 µ.M	
Cc1cc(-c2ccc(/N=N/c3ccc4c(S(=O)(=O)O)cc(S(=O)(=O)O)c(N)c4c3O)c(C)c2)ccc1/N=N/c1ccc2c(S(=O)(=O)O)cc(S(=O)(=O)O)c(N)c2c1O [Evans Blue]	25 µg/mL	
N[C@H]1C(O)O[C@H](CO)[C@@H](O)[C@@H]1OS(=O)(=O)O (stereo partly shown) [glucosamine 3-sulfate, glucosamine-3-sulfate]		> 125 µg/mL
N[C@H]1C(O)O[C@H](COS(=O)(=O)O)[C@@H](O)[C@@H]1O (stereo partly shown) [glucosamine 6-sulfate, glucosamine-6-sulfate]		> 125 µg/mL
Cc1ccc(C(=O)Nc2ccc(S(=O)(=O)O)c3cc(S(=O)(=O)O)cc(S(=O)(=O)O)c23)cc1NC(=O)c1cccc(NC(=O)Nc2cccc(C(=O)Nc3cc(C(=O)Nc4ccc(S(=O)(=O)O)c5cc(S(=O)(=O)O)cc(S(=O)(=O)O)c45)ccc3C)c2)c1 [suramin]	50 µg/mL	
glucosamine-2,3-disulfate [glucosamine 2,3-disulfate]		> 125 µg/mL
glucosamine-2-sulfate [glucosamine 2-sulfate]		> 125 µg/mL
